This passage reports Ki and EC50 results from patent US9951064B2, “Azaindazole compounds as inhibitors of T790M containing EGFR mutants” (Genentech, Inc., priority 2013, dated 2018).

Assay [1] deals with T1, EGFR T790M L858R (Homo sapiens, UniProt P00533, L858R/T790M).
T1 construct: purchased Life Technologies PV4879
Description: EGFR T790M L858R biochemical assay (Caliper mobility shift). The settings on record: 5 μM ATP; apparent Ki (Morrison fit) converted by Cheng-Prusoff, Km of ATP 1.3 μM. The essentials: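 Caliper mobility-shift read-out, electrophoretic separation of substrate from product, after a 30-minute kinase reaction at 22 °C. EDTA at 80 mM terminates each reaction.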

Assay [2] deals with T2, EGFR del746-750 T790M (Homo sapiens, UniProt P00533, DEL746-750/T790M).
T2 construct: purchased Carna Biosciences 08-528
T2 sequence (P00533 with tags, fused parts or gaps DEL746-750/T790M limits assumed): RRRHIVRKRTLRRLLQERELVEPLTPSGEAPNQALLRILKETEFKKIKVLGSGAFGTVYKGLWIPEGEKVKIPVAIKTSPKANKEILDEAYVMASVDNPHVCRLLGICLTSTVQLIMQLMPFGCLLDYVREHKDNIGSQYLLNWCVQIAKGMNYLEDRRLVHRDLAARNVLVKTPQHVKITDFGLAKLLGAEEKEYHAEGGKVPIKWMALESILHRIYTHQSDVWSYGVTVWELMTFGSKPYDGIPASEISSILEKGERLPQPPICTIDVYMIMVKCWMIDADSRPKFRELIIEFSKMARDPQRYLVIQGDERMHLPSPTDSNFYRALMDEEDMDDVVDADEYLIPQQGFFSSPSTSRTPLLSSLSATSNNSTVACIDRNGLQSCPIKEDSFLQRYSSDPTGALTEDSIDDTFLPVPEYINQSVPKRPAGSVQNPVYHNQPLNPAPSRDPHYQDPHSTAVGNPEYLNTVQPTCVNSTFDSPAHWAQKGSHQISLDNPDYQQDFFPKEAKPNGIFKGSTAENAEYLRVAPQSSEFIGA
Description: EGFR del746-750 T790M biochemical assay (Caliper mobility shift). The settings on record: 5 μM ATP; apparent Ki (Morrison fit) converted by Cheng-Prusoff, Km of ATP 2.1 μM; read-out: EGFR(T790M/d746-750) Ki. An outline of the steps:
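Caliper mobility-shift read-out, with product electrophoretically resolved from substrate and measured. Reactions were quenched with 80 mM EDTA after 30 min at 22 °C.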

Assay [3] concerns the target T3, phosphor-EGFR in H1975(L585R/T790M) mutant EGFR expressing cells (Homo sapiens, UniProt P00533, L858R/T790M).
T3 construct: host or cells: NCI-H1975
Description: H1975 pEGFR MSD cellular assay. Type of assay: cell-based. As to conditions: NCI-H1975 cells, serum starved, 1 hour compound incubation, pEGFR Tyr1068 MSD; read-out: HI975 pEGFR EC50. The essentials: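 Phospho-EGFR read by MSD electrochemiluminescence: capture with anti-pEGFR antibody (overnight, 4° C), detection with SULFO-TAG anti-total EGFR (1 hour, room temperature). Before lysis, H1975 cells starved of serum overnight got compound for 1 hour at 37° C, 0.5% DMSO final. EC50 via four-parameter logistic regression of percent inhibition.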

In assay [4] the test system is H1975 (EGFR T790M/L858R) cell proliferation. Description: H1975 proliferation assay (Cell Titer-Glo). Type of assay: cell-based. As to conditions: NCI-H1975 cells, 72 hour incubation, read-out: H1975 antiproliferative EC50. How it is done: H1975 Proliferation Assays
All cell culture reagents were purchased from Invitrogen/Gibco. Cells are cultured at 37° C. at 5% CO2 and split as recommended by ATCC.
For orientation: Cellular ATP, detected with luciferase, serves as a proxy for viable cell number.

Read-outs that look alike come from different tables or passages of the source.

T3 sequence (P00533 25-1210 T790M/L858R): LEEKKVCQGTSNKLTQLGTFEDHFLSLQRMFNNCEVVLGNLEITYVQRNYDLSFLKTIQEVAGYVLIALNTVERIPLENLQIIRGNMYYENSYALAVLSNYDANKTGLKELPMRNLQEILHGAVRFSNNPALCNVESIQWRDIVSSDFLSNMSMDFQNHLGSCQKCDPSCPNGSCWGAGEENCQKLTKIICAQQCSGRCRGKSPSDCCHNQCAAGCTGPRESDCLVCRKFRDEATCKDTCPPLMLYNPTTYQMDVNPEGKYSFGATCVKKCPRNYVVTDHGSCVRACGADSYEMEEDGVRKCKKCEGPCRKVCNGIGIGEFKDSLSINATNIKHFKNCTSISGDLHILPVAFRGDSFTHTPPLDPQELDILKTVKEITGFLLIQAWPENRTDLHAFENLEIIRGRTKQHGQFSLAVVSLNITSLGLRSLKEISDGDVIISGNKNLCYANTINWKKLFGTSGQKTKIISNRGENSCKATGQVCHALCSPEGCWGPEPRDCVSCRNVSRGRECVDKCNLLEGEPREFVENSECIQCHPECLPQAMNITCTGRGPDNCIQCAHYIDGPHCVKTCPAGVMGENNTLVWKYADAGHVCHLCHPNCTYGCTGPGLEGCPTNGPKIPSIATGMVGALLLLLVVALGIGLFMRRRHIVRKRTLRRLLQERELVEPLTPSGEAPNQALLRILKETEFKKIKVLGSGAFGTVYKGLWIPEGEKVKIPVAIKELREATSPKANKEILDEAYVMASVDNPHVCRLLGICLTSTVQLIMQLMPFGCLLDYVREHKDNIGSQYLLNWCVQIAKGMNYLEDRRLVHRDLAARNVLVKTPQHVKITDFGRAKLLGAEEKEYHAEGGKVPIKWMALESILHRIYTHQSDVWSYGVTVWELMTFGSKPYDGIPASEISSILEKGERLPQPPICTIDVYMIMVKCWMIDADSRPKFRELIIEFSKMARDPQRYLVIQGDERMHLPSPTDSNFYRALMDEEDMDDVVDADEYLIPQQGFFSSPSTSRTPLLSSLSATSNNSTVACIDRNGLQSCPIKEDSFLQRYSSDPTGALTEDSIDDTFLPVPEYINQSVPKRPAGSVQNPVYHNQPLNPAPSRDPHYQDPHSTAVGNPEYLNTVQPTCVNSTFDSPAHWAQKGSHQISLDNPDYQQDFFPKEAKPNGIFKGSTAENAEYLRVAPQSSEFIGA
T1 sequence (P00533 25-1210 T790M/L858R): as above

Take `CC(C)n1nc(N2C[C@@H](O)[C@H](F)C2)c2cnc(Nc3ccnc(N4CC[C@H](O)[C@H](F)C4)n3)cc21` (relative stereo) [Example 131, cis-3-Fluoro-1-(4-(3-(trans-3-fluoro-4-hydroxypyrrolidin-1-yl)-1-isopropyl-1H-pyrazolo[4,3-c]pyridin-6-ylamino)pyrimidin-2-yl)piperidin-4-ol]: the Ki came to 0.0008 µM in assay [1] and 0.0012 µM in assay [2]. Besides, the EC50 – broadly, the concentration at which the effect is half-maximal – is 0.129 µM in assay [3] and 1.48 µM in assay [4] (Homo sapiens, NCI-H1975, 72 h).

As to `C[C@H](n1nc(N2CC[C@@H](O)C2)c2cnc(Nc3ccnc(N4CC[C@H](O)[C@H](F)C4)n3)cc21)C(F)(F)F` (relative stereo) [Example 141, (±)-cis-3-Fluoro-1-(4-(3-((R)-3-hydroxypyrrolidin-1-yl)-1-((S*)-1,1,1-trifluoropropan-2-yl)-1H-pyrazolo[4,3-c]pyridin-6-ylamino)pyrimidin-2-yl)piperidin-4-ol], the Ki in assay [1] came out at 0.0016 µM; in assay [2] it was 0.0027 µM. In addition, the EC50 in assay [3] worked out at 0.0892 µM; in assay [4] (Homo sapiens, NCI-H1975, 72 h), 0.769 µM.

For the compound `C[C@@H](n1nc(N2CC[C@@H](O)C2)c2cnc(Nc3ccnc(N4CC[C@H](O)[C@H](F)C4)n3)cc21)C(F)(F)F` (relative stereo) [Example 142, (±)-cis-3-Fluoro-1-(4-(3-((R)-3-hydroxypyrrolidin-1-yl)-1-((R*)-1,1,1-trifluoropropan-2-yl)-1H-pyrazolo[4,3-c]pyridin-6-ylamino)pyrimidin-2-yl)piperidin-4-ol], the Ki in assay [1] amounted to 0.0016 µM; in assay [2], 0.0031 µM. The half-maximal effective concentration (EC50) in assay [3] came to 0.11 µM; in assay [4] (Homo sapiens, NCI-H1975, 72 h) it was 1.28 µM.

For `CCC(C)n1nc(N2C[C@@H](F)[C@@H](N)C2)c2cnc(Nc3ccnc(N4CCC(C)(O)CC4)n3)cc21` (relative stereo) [Example 177, 1-(4-(3-(cis-3-Amino-4-fluoropyrrolidin-1-yl)-1-sec-butyl-1H-pyrazolo[4,3-c]pyridin-6-ylamino)pyrimidin-2-yl)-4-methylpiperidin-4-ol], the Ki worked out at 0.0017 µM in assay [1] and 0.0021 µM in assay [2]. The EC50 in assay [3] came out at 0.0872 µM; in assay [4] (Homo sapiens, NCI-H1975, 72 h) it was 0.489 µM.

As for `CCC(C)n1nc(N2C[C@H](O)[C@@H](F)C2)c2cnc(Nc3ccnc(N4CCC(C)(O)CC4)n3)cc21` (relative stereo) [Example 178, 1-(4-(1-sec-Butyl-3-(trans-3-fluoro-4-hydroxypyrrolidin-1-yl)-1H-pyrazolo[4,3-c]pyridin-6-ylamino)pyrimidin-2-yl)-4-methylpiperidin-4-ol], the Ki in assay [1] worked out at 0.0014 µM; in assay [2], 0.0047 µM. Moreover, the EC50 is 0.0832 µM in assay [3] and 0.483 µM in assay [4] (Homo sapiens, NCI-H1975, 72 h).

Regarding `CC(C#N)Nc1nn(C(C)C)c2cc(Nc3ccnc(N4CC[C@H](O)[C@H](F)C4)n3)ncc12` (relative stereo) [Example 179, 2-(6-(2-(cis-3-Fluoro-4-hydroxypiperidin-1-yl)pyrimidin-4-ylamino)-1-isopropyl-1H-pyrazolo[4,3-c]pyridin-3-ylamino)propanenitrile], the Ki in assay [1] came out at 0.0056 µM; in assay [2] it was 0.0151 µM. In addition, the EC50 in assay [3] turned out to be 0.746 µM; in assay [4] (Homo sapiens, NCI-H1975, 72 h) it was 1.48 µM.

As for `CC[C@H](C)n1nc(N2CC(C(C)(C)O)C2)c2cnc(Nc3ccnc(N4CC[C@@H](O)[C@@H](F)C4)n3)cc21` (relative stereo) [Example 194, (3S,4R)-1-(4-((1-((S*)-sec-Butyl)-3-(3-(2-hydroxypropan-2-yl)azetidin-1-yl)-1H-pyrazolo[4,3-c]pyridin-6-yl)amino)pyrimidin-2-yl)-3-fluoropiperidin-4-ol], the Ki in assay [1] is 0.0015 µM; in assay [2], 0.0035 µM. Further, the EC50 in assay [3] was 0.171 µM; in assay [4] (Homo sapiens, NCI-H1975, 72 h), 0.429 µM.

Turning to `CC[C@@H](C)n1nc(N2CC[C@@H](O)C2)c2cnc(Nc3ccnc(N4CCC5(CC4)CNC(=O)CO5)n3)cc21` (relative stereo) [Example 208, 9-(4-((1-((R*)-sec-Butyl)-3-((R)-3-hydroxypyrrolidin-1-yl)-1H-pyrazolo[4,3-c]pyridin-6-yl)amino)pyrimidin-2-yl)-1-oxa-4,9-diazaspiro[5.5]undecan-3-one], the Ki stood at 0.0038 µM in assay [1] and 0.0101 µM in assay [2]. Moreover, the concentration giving a half-maximal response (EC50) is 1.2 µM in assay [3] and 9.13 µM in assay [4] (Homo sapiens, NCI-H1975, 72 h).

`CC[C@@H](C)n1nc(N2CC[C@@H](O)C2)c2cnc(Nc3ccnc(N4CC[C@](C)(C(N)=O)C4)n3)cc21` (relative stereo) [Example 210, (S*)-1-(4-((1-((R*)-sec-Butyl)-3-((R)-3-hydroxypyrrolidin-1-yl)-1H-pyrazolo[4,3-c]pyridin-6-yl)amino)pyrimidin-2-yl)-3-methylpyrrolidine-3-carboxamide]: the Ki in assay [1] came out at 0.0031 µM; in assay [2], 0.0021 µM. Moreover, the EC50 in assay [3] is 1.85 µM; in assay [4] (Homo sapiens, NCI-H1975, 72 h), 4.05 µM.

`CC[C@H](C)n1nc(N2CC3(COC3)C2)c2cnc(Nc3ccnc(N4CC[C@@](C)(O)[C@@H](F)C4)n3)cc21` (single isomer, unassigned) [Example 66, (3R*,4S*)-1-{4-[1-((S)-sec-Butyl)-3-(2-oxa-6-azaspiro[3.3]hept-6-yl)-1H-pyrazolo[4,3-c]pyridin-6-ylamino]pyrimidin-2-yl}-3-fluoro-4-methylpiperidin-4-ol]: the results for the Ki in assay [1] and in assay [2] were 0.0021 µM and 0.0046 µM, respectively. For the same compound, the EC50 in assay [3] is 0.0638 µM; in assay [4] (Homo sapiens, NCI-H1975, 72 h), 0.631 µM.

For `CC[C@@H](C)n1nc(N2CC3(COC3)C2)c2cnc(Nc3ccnc(N4CC[C@](C)(O)[C@H](F)C4)n3)cc21` (single isomer, unassigned) [Example 67, (3R*,4S*)-1-{4-[1-((R)-sec-Butyl)-3-(2-oxa-6-azaspiro[3.3]hept-6-yl)-1H-pyrazolo[4,3-c]pyridin-6-ylamino]pyrimidin-2-yl}-3-fluoro-4-methylpiperidin-4-ol], the Ki in assay [1] worked out at 0.0039 µM; in assay [2], 0.0111 µM. Further, the EC50 in assay [3] came out at 0.257 µM; in assay [4] (Homo sapiens, NCI-H1975, 72 h) it was 1.16 µM.

For `CC[C@@H](C)n1nc(N2CC3(COC3)C2)c2cnc(Nc3ccnc(N4CC[C@@](C)(O)[C@@H](F)C4)n3)cc21` (single isomer, unassigned) [Example 68, (3R*,4S*)-1-{4-[1-((R)-sec-Butyl)-3-(2-oxa-6-azaspiro[3.3]hept-6-yl)-1H-pyrazolo[4,3-c]pyridin-6-ylamino]pyrimidin-2-yl}-3-fluoro-4-methylpiperidin-4-ol], the Ki stood at 0.0032 µM in assay [1] and 0.0102 µM in assay [2]. Also, the EC50 in assay [3] turned out to be 0.157 µM; in assay [4] (Homo sapiens, NCI-H1975, 72 h), 0.851 µM.

On to `CC(C)n1nc(N2CCC(O)C2)c2cnc(Nc3ccnc(N4CC[C@@H](O)[C@@H](F)C4)n3)cc21` (single isomer, unassigned) [Example 105, (3S*,4R*)-3-fluoro-1-(4-((3-((R)-3-hydroxypyrrolidin-1-yl)-1-isopropyl-1H-pyrazolo[4,3-c]pyridin-6-yl)amino)pyrimidin-2-yl)piperidin-4-ol], for which the figures for the Ki in assay [1] and in assay [2] were 0.0012 µM and 0.0027 µM, respectively. Further, the EC50 turned out to be 0.129 µM in assay [3] and 0.213 µM in assay [4] (Homo sapiens, NCI-H1975, 72 h).

As for `CCC(C)n1nc(N2CC(C(C)(C)O)C2)c2cnc(Nc3ccnc(N4CC[C@@H](O)[C@@H](F)C4)n3)cc21` (single isomer, unassigned) [Example 193, (3S,4R)-1-(4-((1-((R*)-sec-Butyl)-3-(3-(2-hydroxypropan-2-yl)azetidin-1-yl)-1H-pyrazolo[4,3-c]pyridin-6-yl)amino)pyrimidin-2-yl)-3-fluoropiperidin-4-ol], the Ki worked out at 0.0018 µM in assay [1] and 0.0056 µM in assay [2]. The EC50 in assay [3] was found to be 0.129 µM; in assay [4] (Homo sapiens, NCI-H1975, 72 h) it was 0.334 µM.

In the case of `CCC(C)n1nc(N2CC3(COC3)C2)c2cnc(Nc3ccnc(N4CC[C@@H](O)[C@@H](F)C4)n3)cc21` (single isomer, unassigned) [Example 197, (3S,4R)-1-(4-((1-((R*)-sec-Butyl)-3-(2-oxa-6-azaspiro[3.3]heptan-6-yl)-1H-pyrazolo[4,3-c]pyridin-6-yl)amino)pyrimidin-2-yl)-3-fluoropiperidin-4-ol], the Ki was 0.0012 µM in assay [1] and 0.0027 µM in assay [2]. In addition, the results for the EC50 in assay [3] and in assay [4] were 0.0128 µM and 0.149 µM, respectively.

For `CCC(C)n1nc(N2CC3(COC3)C2)c2cnc(Nc3ccnc(N4CC[C@@H](O)[C@@H](F)C4)n3)cc21` (single isomer, unassigned) [Example 198, (3S,4R)-1-(4-((1-((S*)-sec-Butyl)-3-(2-oxa-6-azaspiro[3.3]heptan-6-yl)-1H-pyrazolo[4,3-c]pyridin-6-yl)amino)pyrimidin-2-yl)-3-fluoropiperidin-4-ol], the results for the Ki in assay [1] and in assay [2] were 0.0015 µM and 0.0031 µM, respectively. In addition, the values for the EC50 in assay [3] and in assay [4] were 0.0164 µM and 0.348 µM, respectively.
